Read-outs that look alike come from different tables or passages of the source.
Tests used:
[1] = set-up: method as in earlier work; conditions: manufacturer's information ref 8; cited from earlier work
[2] = Noncompartmental pharmacokinetics after single oral doses in healthy volunteers; format: in vivo, human; conditions: for half-life / Cmax / AUC / Tmax / CL renal: male, human; for AUC: read-out: AUC(0‐inf); for Tmax: read-out: Median tmax (range); for CL renal / Recovery unchanged: urine; for CL renal: read-out: Renal clearance (converted)
Text: Eligible subjects for the clinical study were healthy adult male volunteers aged 18‐45 years, with a body weight ranging between 55 and 95 kg and a body mass index of 18‐29 kg/m^2. Subjects with a history or evidence of clinically significant diseases or interfering conditions were excluded. Other exclusion criteria included: history of any clinically significant laboratory value including serology for hepatitis and HIV, relevant alcohol or drug abuse, recent acute illness, or use of any medication the week prior to study.
Single oral doses of 50, 100, and 200 mg of sultiame (Ospolot®, immediate‐release coated tablets) were administered in fasting conditions, in open‐label, during periods 1, 2, and 3, respectively, at 4‐6 weeks interval. On each period, serial plasma and whole blood samples were collected predose, then at 15, 30 min, 1, 2, 3, 4, 5, 6, 8, 10, 24, 48, 72 168, 336, and 504 hours postdose. Plasma and whole blood samples were stored at − 80°C until analysis. Hematocrit was measured using a microhematocrit centrifuge machine (Haematokrit 200®, Hettich AG, Bäch, Switzerland) on each occasion to calculate intraerythrocytic concentrations. Urine PK samples were collected in 6 fractions, before dosing, from 0‐2, 2‐4, 4‐8, 8‐10, and 10‐24 hours postdose. Urine pH was measured on each fraction.
The quantification of sultiame in whole blood, plasma, and urine was performed using a high‐performance liquid chromatography coupled to tandem triple quadrupole mass spectrometry (LC‐MS/MS) method developed and validated purposely for the trial. Briefly, 300 µL of methanol (MeOH) containing the internal standard (IS) sultiame‐D4 (Toronto Research Chemicals, Canada) was added to 100 µL of human plasma, hemolyzed whole blood, or hemolyzed red blood cells, for protein precipitation. Urine samples were processed similarly. After vortex, sonication for 30 seconds, and centrifugation steps, 250 µL of supernatant was transferred into a glass vial with insert, followed by dilution with 250 µL of pure water and a final vortex step, prior to LC‐MS/MS analysis. Chromatographic analyses were carried out on a XSelect HSS T3 column (Waters, Milford, MA, USA) using a water‐acetonitrile gradient over 5 minutes. Detection was performed with a triple quadrupole mass spectrometer (TSQ Quantum Ultra, ThermoFisher Scientific, Waltham, MA, USA) using the m/z transitions 289.0 → 225.1 for sultiame, and 293.0 → 229.1 for sultiame‐D4. Lower limits of detection and quantification of the method were 0.001 and 0.01 µg/mL, respectively, with a dynamic range extending up to 50 µg/mL. […] Deviations from nominal concentration (inaccuracy) of internal QCs were comprised within − 1.9 to + 11.7% over the calibration range. […] Metabolites, whose chemical structure is still elusive, were not determined.
Erythrocytic concentrations (Cery) were deduced from whole blood and plasma measurements as: Cery=Cwhole blood-Cplasma·1-Ht/Ht
Plasma, whole blood, and urine sultiame PK parameters were first computed for each volunteer using standard noncompartmental calculations with Stata® (version 13, StataCorp. 2013, Stata Statistical Software, College Station TX, USA).
The area under the curve for a single dose (AUC0‐inf) was calculated using the log trapezoidal rule with extrapolation to infinity. The terminal rate constant ( λz ) was derived from a two‐exponential model curve. CL/F was calculated as the dose divided by AUC0‐inf, the half‐life (t1/2) as ln(2)/ λz , and V/F as (CL/F)/ λz .

[3] = plasma, single oral dose 50 mg, n = 4, geometric mean (CV%)
[4] = plasma, single oral dose 100 mg, n = 4, geometric mean (CV%)
[5] = plasma, single oral dose 200 mg, n = 4, geometric mean (CV%)
[6] = single oral dose 50 mg, n = 4, geometric mean (CV%)
[7] = single oral dose 100 mg, n = 4, geometric mean (CV%)
[8] = single oral dose 200 mg, n = 4, geometric mean (CV%)
[9] = whole blood, single oral dose 50 mg, n = 4, geometric mean (CV%)
[10] = whole blood, single oral dose 100 mg, n = 4, geometric mean (CV%)
[11] = whole blood, single oral dose 200 mg, n = 4, geometric mean (CV%)

- increase in plasma Cmax for each doubling of dose ([2]; between dose levels 50, 100, 200 mg): 10 fold
- increase in urinary recovery of unchanged sultiame ([2]; between the 50 and 200 mg doses): about 10 fold
- half-life ([2]; whole blood, oral, noncompartmental, highest observed, read-out: whole blood t1/2): ≤ 13 days
- Cmax [2, 3]: 20 ng/mL
- AUC [2, 3]: 1.24 µg·h/mL
- half-life ([2]; plasma, single oral dose 50 mg, n = 4, geometric mean (CV%), read-out: t1/2 (converted)): 2.12 days
- Tmax ([2]; plasma, single oral dose 50 mg, n = 4): 7 h
- Cmax [2, 4]: 180 ng/mL
- AUC [2, 4]: 8.57 µg·h/mL
- half-life ([2]; plasma, single oral dose 100 mg, n = 4, geometric mean (CV%), read-out: t1/2 (converted)): 3.79 days
- Tmax ([2]; plasma, single oral dose 100 mg, n = 4): 2 h
- Cmax [2, 5]: 1880 ng/mL
- AUC [2, 5]: 24 µg·h/mL
- half-life ([2]; plasma, single oral dose 200 mg, n = 4, geometric mean (CV%), read-out: t1/2 (converted)): 1.67 days
- Tmax ([2]; plasma, single oral dose 200 mg, n = 4): 1.5 h
- CL renal [2, 6]: 2.83 mL/min
- CL renal [2, 7]: 2.33 mL/min
- CL renal [2, 8]: 2.17 mL/min
- Cmax [2, 9]: 7910 ng/mL
- AUC [2, 9]: 3320 µg·h/mL
- half-life ([2]; whole blood, single oral dose 50 mg, n = 4, geometric mean (CV%), read-out: t1/2 (converted)): 13 days
- Tmax ([2]; whole blood, single oral dose 50 mg, n = 4): 3 h
- Cmax [2, 10]: 15900 ng/mL
- AUC [2, 10]: 4540 µg·h/mL
- half-life ([2]; whole blood, single oral dose 100 mg, n = 4, geometric mean (CV%), read-out: t1/2 (converted)): 9.71 days
- Tmax ([2]; whole blood, single oral dose 100 mg, n = 4): 5.01 h
- Cmax [2, 11]: 17200 ng/mL
- AUC [2, 11]: 4530 µg·h/mL
- half-life ([2]; whole blood, single oral dose 200 mg, n = 4, geometric mean (CV%), read-out: t1/2 (converted)): 10.5 days
- Tmax ([2]; whole blood, single oral dose 200 mg, n = 4): 2.5 h
- CL/F [2, 3]: 40.4 (93) L/h
- V/F [2, 3]: 2964 (21) L
- CL/F [2, 4]: 11.7 (25) L/h
- V/F [2, 4]: 1529 (21) L
- CL/F [2, 5]: 8.3 (26) L/h
- V/F [2, 5]: 480 (26) L
- Recovery unchanged [2, 6]: 1.61 (17) %
- Recovery unchanged [2, 7]: 5.24 (111) %
- Recovery unchanged [2, 8]: 16.73 (36) %
- CL/F [2, 9]: 0.015 (37) L/h
- V/F [2, 9]: 6.8 (21) L
- CL/F [2, 10]: 0.008 (34) L/h
- V/F [2, 10]: 7.4 (21) L
- CL/F [2, 11]: 0.044 (41) L/h
- V/F [2, 11]: 16.2 (27) L
Structure (SMILES): NS(=O)(=O)c1ccc(N2CCCCS2(=O)=O)cc1 [Sultiame]
- Plasma‐free fraction [1]: 71%
